Data: patent EP4796176A2, “METHOD OF ALLEVIATING JOINT PAIN” (OrthoTrophix, Inc., priority 2017, dated 2026)
Where no end group is shown, it is not given here.

Tested on: subjects with bilateral patello-femoral knee osteoarthritis
Assay: Randomized double-blind placebo-controlled clinical study, safety and tolerability
Assay type: in vivo, human
Procedure: A multicenter, randomized double-blind, placebo controlled study was designed to investigate the safety, tolerability, pharmacokinetics, and efficacy of TPX-100 administered in four weekly doses in subjects with bilateral patello-femoral knee osteoarthritis. The study was conducted under an open IND (investigational new drug application) at CDER (Center for Drug Evaluation and Research) of the U.S. FDA (The United States Food and Drug Administration) in compliance with GCP (Good Clinical Practice) and ICH (International Conference on Harmonization of Technical Requirements for Registration of Pharmaceuticals for Human Use) guidelines. Eighteen (18) orthopedic, rheumatologic and family practice centers in the U.S. participated in the study.
The study was divided into Part A and Part B. The Part A was to evaluate safety of intra-articular (I.A.) administration of TPX-100 at different dosing levels (20, 50, 100, or 200mg per injection in sequential cohorts) in the subjects with osteoarthritis of the knees and to select a dose adopted for the Part B. The Part B was to evaluate safety and efficacy of the selected dose of TPX-100.
Subjects in Part A enrolled in sequential cohorts were randomized to receive 20, 50, 100 or 200 mg of TPX-100 in one knee and identical placebo in the contralateral knee. Active and placebo assignments were randomized, with subject, site, and sponsor blinded as to treatment assignment. A Safety Review Committee (SRC) evaluated safety in each dosing cohort. The SRC assessed safety and dose-limiting toxicities, if evident, and determined whether the next higher dosing regimen might be enrolled. Part A were completed and analyzed with regard to safety prior to dose selection and initiation of Part B. […]
The 200mg dose was selected for Part B based on review and approval by the SRC. […] The combined final number of the subjects that were analyzed for the drug efficacy for 200mg dose of TPX-100 was 93.
On the first dosing day, the randomized subjects were assessed for their general health conditions by physical examinations and vital signs. […] Subjects were monitored for adverse events during the injections and for a few hours after the injections. Vital signs were also monitored after the injections.
Subjects returned to their respective study sites at 3, 6 and 12 months after the first dosing day for follow-up evaluations. In addition, the study sites monitored the subject's condition through telephone contact 9 months after the first dosing day. During the 3, 6, and 12 months post-treatment follow-up on-site visits, subjects were evaluated by physical examination, vital signs, serum chemistry, as well as KOOS. Adverse events and concomitant medications were also recorded. […]

**Q.** For TDLQERGDNDISPFSGDGQPFKD-NH2 [TPX-100], which dose-limiting toxicities (Part A, 20, 50, 100 and 200 mg per injection, four weekly intra-articular injections) is on record?
**A.** The dose-limiting toxicities was “no dose-limiting toxicities”.

**Q.** What about the severe adverse events (throughout the study period) of the same substance?
**A.** Its severe adverse events is “no severe adverse events likely or possibly related to the drug treatment”.

**Q.** What about the treatment-related adverse events (throughout the study period) of the same substance?
**A.** Its treatment-related adverse events is “mild or moderate, transient”.

**Q.** What about the safety and tolerability (throughout the study period (12 months)) of the same substance?
**A.** The safety and tolerability was “safe and well tolerated”.
